Patent US10426815B2, “Prevention and treatment of itch with an MRGPR antagonist” (THE GENERAL HOSPITAL CORPORATION, priority 2015, dated 2019)
Entries after “also recorded” stand apart in the source; their conditions may differ.

Columns and labels:
Type in all cases: cell-based
NK1R (NK1) = target: T1, NK1R (NK1) (Homo sapiens, UniProt P25103); test: Calcium imaging of cells transfected with the GPCR (Table 1); details: FIG. 6a: SP 5 nM, inhibitors 1 μM
T1 construct: host or cells: HeLa cells, pcDNA3.1(-)
Description: (§1) Human NK1 cDNA was obtained from LIFE Technologies, PCR cloned with Xho I-Hind III ends and cloned into pcDNA3.1(−). Mouse NK2 and NK3 expression-ready vectors were obtained from […] (Piscataway, N.J.). All other Mrgprs (human MRGPRX1, human MRGPRX2, human MRGPRX3, human MRGPRX4, mouse MrgprA2a, mouse MrgprA2b, mouse MrgprA3, mouse MrgprA4, mouse MrgprA9, mouse MrgprA10, mouse MrgprB4 and mouse MrgprB5) were cloned by PCR from genomic DNAs and inserted into pcDNA3.1 (−).
(§2) 10 μg of expression vector (human MRGPRX2, mouse MrgprA1 or NK1) and 10 μl of LIPOFECTAMINE 2000 transfection reagent were diluted into 0.5 ml of DMEM and separately left at room temperature (RT) for 5 min. They were then mixed and incubated at RT for 20 minutes prior to being added to HeLa cells. HeLa cells were grown to confluence, trypsinized and 1×10^6 cells were pelleted in a 15 ml tube by centrifugation at 1000 rpm for 5 minutes. […]
(§3) Calcium imaging was performed immediately after loading cells with Fura-2, using a ZEISS Axiovert 200M microscope platform equipped with a flipping filter wheel for ratiometric imaging. […] The software later analyzed all images taken during each excitation period. Ratiometric changes were measured in 10-20 cells in each individual experiment. An average of the fluorescence of the cells in each image was calculated and plotted against time in seconds.

MrgA3 (mouse MrgprA3) = target: T2, MrgA3 (mouse MrgprA3) (Mus musculus, UniProt Q91WW3); test: as above; details: FIG. 7c: CQ 100 μM, QWF 100 μM
T2 construct: expressed in transfected cells; host or cells: HeLa cells, pcDNA3.1(-)
T2 sequence (Q91WW3 1-302): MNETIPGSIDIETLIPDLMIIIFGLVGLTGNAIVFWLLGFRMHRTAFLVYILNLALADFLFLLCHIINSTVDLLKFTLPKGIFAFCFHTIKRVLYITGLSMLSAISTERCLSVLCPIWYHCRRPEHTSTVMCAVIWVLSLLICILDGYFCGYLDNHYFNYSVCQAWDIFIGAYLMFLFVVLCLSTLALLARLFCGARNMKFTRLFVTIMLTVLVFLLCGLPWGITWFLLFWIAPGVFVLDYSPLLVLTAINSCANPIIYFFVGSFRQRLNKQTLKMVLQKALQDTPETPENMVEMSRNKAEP
Description: as §1
10 μg of expression vector (human MRGPRX2, mouse MrgprA1 or NK1) and 10 μl of LIPOFECTAMINE 2000 transfection reagent were diluted into 0.5 ml of DMEM and separately left at room temperature (RT) for 5 min. They were then mixed and incubated at RT for 20 minutes prior to being added to HeLa cells. HeLa cells were grown to confluence, trypsinized and 1×10^6 cells were pelleted in a 15 ml tube by centrifugation at 1000 rpm for 5 minutes. The DMEM-LIPOFECTAMINE 2000-DNA mixture (1 ml) was then added to the cell pellet, suspended and incubated at RT for 5 minutes. 2 ml of complete DMEM with 10% FBS without antibiotics were added to the tube, mixed by inverting the tube, plated into a 96-well glass bottom plate at 50,000 cells/well, and placed in a 37° C. CO2 incubator for 3 hours. HeLa cells transfected with salmon sperm DNA were plated as a control. The medium was changed after 3 hours and left in the incubator. 24 hours after transfection, the medium in the wells was removed and 100 μl of complete DMEM containing 2 μM of FURA-2 were added to each well and left at room temperature in the dark for 1 hr.
Calcium imaging was performed immediately after loading cells with Fura-2, using a ZEISS Axiovert 200M microscope platform equipped with a flipping filter wheel for ratiometric imaging. Axiovision software, version 4.6 was used for calcium image analysis of the cells excited at 340 nm and 380 nm. Agonists were added at 15 seconds after the start of the excitation procedure. Antagonists were added five minutes before imaging with the agonists. Images were taken every 5 seconds, including at zero time, during a 90 second period or longer if required. The software later analyzed all images taken during each excitation period. Ratiometric changes were measured in 10-20 cells in each individual experiment. An average of the fluorescence of the cells in each image was calculated and plotted against time in seconds.

hMRGPRX2 = target: T3, hMRGPRX2 (Homo sapiens, UniProt Q96LB1); test: Concentration-effect curves of substance P versus QWF, stable HEK-293 cell line; details: stable HEK-293 clone; experiment done once, triplicate points
T3 construct: expressed in transfected cells
T3 sequence (Q96LB1 1-330): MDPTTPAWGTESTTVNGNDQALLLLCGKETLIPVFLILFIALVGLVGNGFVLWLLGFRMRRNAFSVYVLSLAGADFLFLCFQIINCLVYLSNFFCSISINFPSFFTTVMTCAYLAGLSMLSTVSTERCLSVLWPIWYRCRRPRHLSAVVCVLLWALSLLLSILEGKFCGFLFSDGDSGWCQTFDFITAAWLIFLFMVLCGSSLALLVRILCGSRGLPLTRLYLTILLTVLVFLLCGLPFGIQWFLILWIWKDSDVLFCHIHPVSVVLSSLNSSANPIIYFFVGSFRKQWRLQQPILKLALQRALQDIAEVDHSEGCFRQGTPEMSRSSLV
Description: Concentration-effect curves with substance P versus the indicated concentrations of QWF on a stable HEK-293 cell line expressing hMRGPRX2. HEK293 cells were transfected with a pcDNA3.1(−) vector containing MRGPRX2 cDNA and clones resistant to […] (G418) were selected. The data were generated from one of those clones. The experiment was done once with each data point done in triplicate. Error bars represent+/−SEM.

MrgX3 (human MRGPRX3) = target: T4, MrgX3 (human MRGPRX3) (Homo sapiens, UniProt Q96LB0); test: Calcium imaging of cells transfected with the GPCR (Table 1); details: SP 10 μM (FIG. 9)
T4 construct: expressed in transfected cells; host or cells: HeLa cells, pcDNA3.1(-)
Description: as §1, §2
as §3, with “seconds. […]” for “seconds.”

MrgX4 (human MRGPRX4) = target: T5, MrgX4 (human MRGPRX4) (Homo sapiens, UniProt Q96LA9); test: as above; details: SP 10 μM (FIG. 9)
T5 construct: expressed in transfected cells; host or cells: HeLa cells, pcDNA3.1(-)
Description: as §1, §2
as §3, with “seconds. […]” for “seconds.”

T1 sequence (P25103 whole entry): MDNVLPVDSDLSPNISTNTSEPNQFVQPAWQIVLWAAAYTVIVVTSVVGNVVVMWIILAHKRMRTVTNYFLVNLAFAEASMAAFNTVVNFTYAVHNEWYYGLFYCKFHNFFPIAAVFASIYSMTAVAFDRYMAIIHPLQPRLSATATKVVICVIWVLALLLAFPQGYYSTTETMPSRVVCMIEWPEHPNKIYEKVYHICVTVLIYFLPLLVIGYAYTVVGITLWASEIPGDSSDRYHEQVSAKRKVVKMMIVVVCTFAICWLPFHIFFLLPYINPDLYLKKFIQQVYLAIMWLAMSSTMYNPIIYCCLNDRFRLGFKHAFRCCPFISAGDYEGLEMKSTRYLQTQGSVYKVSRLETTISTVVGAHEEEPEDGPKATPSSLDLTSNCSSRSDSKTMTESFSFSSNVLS
T4 sequence (Q96LB0 whole entry): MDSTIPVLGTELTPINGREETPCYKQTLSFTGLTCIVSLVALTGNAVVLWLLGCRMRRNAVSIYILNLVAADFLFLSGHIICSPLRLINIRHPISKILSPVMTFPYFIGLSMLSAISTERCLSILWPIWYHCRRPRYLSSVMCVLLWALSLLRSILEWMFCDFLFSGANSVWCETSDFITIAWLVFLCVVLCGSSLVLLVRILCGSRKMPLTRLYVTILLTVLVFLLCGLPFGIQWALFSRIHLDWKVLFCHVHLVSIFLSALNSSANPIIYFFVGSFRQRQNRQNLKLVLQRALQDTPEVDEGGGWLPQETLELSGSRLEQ
T5 sequence (Q96LA9 whole entry): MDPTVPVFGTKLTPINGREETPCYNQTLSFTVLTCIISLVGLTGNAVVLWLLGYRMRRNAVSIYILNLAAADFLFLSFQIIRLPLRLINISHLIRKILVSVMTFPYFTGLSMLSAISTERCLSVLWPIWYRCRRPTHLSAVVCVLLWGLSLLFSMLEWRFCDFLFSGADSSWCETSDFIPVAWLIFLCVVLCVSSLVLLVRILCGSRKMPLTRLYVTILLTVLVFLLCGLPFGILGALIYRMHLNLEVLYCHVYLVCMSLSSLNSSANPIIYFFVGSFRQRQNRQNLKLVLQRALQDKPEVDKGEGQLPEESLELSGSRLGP

inhibition of NK1 (activation by SP) (NK1R (NK1))	mode of QWF antagonism of substance P at hMRGPRX2 (hMRGPRX2)	activation of hMRGPRX3 by the substance (in words) (MrgX3 (human MRGPRX3))	activation of hMRGPRX4 by the substance (in words) (MrgX4 (human MRGPRX4))	Substance	inhibition of MrgprA3 activation by chloroquine (CQ) (MrgA3 (mouse MrgprA3))
inhibit; also recorded: blocks	competitive antagonist			Boc-Gln-D-Trp(Formyl)-Phe benzyl ester trifluoroacetate [QWF]	does not affect; also recorded: does not inhibit
		does not activate	does not activate	SP: inflammatory undecapeptide neuropeptide of the tachykinin family, synthesized by GenScript	
